Experimental data taken from ChEMBL document CHEMBL1153270, “Fluoroalkyl alpha side chain containing 3,4-diamino-cyclobutenediones as potent and orally bioavailable CXCR2-CXCR1 dual antagonists” (Bioorg Med Chem Lett, 2009).

Tests used:
[1] = molecular target: T1, C-X-C chemokine receptor type 1 (Homo sapiens, UniProt P25024); test: Binding affinity to CXCR1
T1 sequence (P25024 whole entry): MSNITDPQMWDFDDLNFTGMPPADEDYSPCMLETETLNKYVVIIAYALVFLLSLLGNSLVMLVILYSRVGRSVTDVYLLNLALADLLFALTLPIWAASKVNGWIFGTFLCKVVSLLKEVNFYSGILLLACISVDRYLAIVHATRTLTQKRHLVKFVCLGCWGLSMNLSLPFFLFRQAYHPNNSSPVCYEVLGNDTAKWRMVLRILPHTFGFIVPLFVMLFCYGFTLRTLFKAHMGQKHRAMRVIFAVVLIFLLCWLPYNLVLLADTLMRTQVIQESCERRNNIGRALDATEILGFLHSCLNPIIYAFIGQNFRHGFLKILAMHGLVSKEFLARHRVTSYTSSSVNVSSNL

[2] = AUC in po dosed rat; type: ADME, organism-based; details: plasma
[3] = molecular target: T2, C-X-C chemokine receptor type 2 (Homo sapiens, UniProt P25025); test: Binding affinity to CXCR2
T2 sequence (P25025 whole entry): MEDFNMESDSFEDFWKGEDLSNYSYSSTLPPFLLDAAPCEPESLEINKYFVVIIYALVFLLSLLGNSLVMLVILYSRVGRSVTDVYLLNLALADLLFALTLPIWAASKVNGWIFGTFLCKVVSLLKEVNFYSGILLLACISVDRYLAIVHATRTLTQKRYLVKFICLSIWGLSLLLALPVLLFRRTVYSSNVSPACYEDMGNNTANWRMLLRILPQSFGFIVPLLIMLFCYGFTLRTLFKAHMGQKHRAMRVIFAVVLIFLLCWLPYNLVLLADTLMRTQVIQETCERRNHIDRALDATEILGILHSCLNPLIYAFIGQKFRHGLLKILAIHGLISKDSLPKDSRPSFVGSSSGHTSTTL

SMILES | Ki [1] | AUC [2] | Ki [3]
CC[C@@H](Nc1c(Nc2cccc(C(=O)N(C)C)c2O)c(=O)c1=O)c1ccccc1 | 40 nM | 17.4 µM·h | 4 nM
CN(C)C(=O)c1cccc(Nc2c(N[C@@H](c3ccccc3)C(F)(F)F)c(=O)c2=O)c1O | 40 nM | – | 14 nM
C[C@H](F)[C@@H](Nc1c(Nc2cccc(C(=O)N(C)C)c2O)c(=O)c1=O)c1ccco1 | 43 nM | – | 7 nM
CN(C)C(=O)c1cccc(Nc2c(N[C@H](CC(F)(F)F)c3ccco3)c(=O)c2=O)c1O | 100 nM | – | 5 nM
CN(C)C(=O)c1cccc(Nc2c(N[C@H](CCC(F)(F)F)c3ccco3)c(=O)c2=O)c1O | – | – | 400 nM
CN(C)C(=O)c1cccc(Nc2c(N[C@@H](c3ccco3)C(F)(F)F)c(=O)c2=O)c1O | 6 nM | – | 2 nM
CN(C)C(=O)c1cccc(Nc2c(N[C@@H](c3ccc(Cl)o3)C(F)(F)F)c(=O)c2=O)c1O | 34 nM | – | 7 nM
CN(C)C(=O)c1cccc(Nc2c(N[C@@H](c3cc(Cl)co3)C(F)(F)F)c(=O)c2=O)c1O | 20 nM | – | 5 nM
C=CC(F)(F)[C@@H](Nc1c(Nc2cccc(C(=O)N(C)C)c2O)c(=O)c1=O)c1ccc(C)o1 | – | – | 9 nM
Cc1ccc([C@H](Nc2c(Nc3cccc(C(=O)N(C)C)c3O)c(=O)c2=O)C(C)(F)F)o1 | 6 nM | 3 µM·h | 10 nM
Cc1ccc([C@H](Nc2c(Nc3cccc(C(=O)N(C)C)c3O)c(=O)c2=O)C(C)(C)F)o1 | 24 nM | – | 8 nM
Cc1ccoc1[C@H](Nc1c(Nc2cccc(C(=O)N(C)C)c2O)c(=O)c1=O)C(C)(F)F | 30 nM | – | 12 nM
Cc1ccc([C@H](Nc2c(Nc3cccc(C(=O)N(C)C)c3O)c(=O)c2=O)[C@H](C)F)o1 | 16 nM | 3.6 µM·h | 13 nM
Cc1ccc([C@H](Nc2c(Nc3cccc(C(=O)N(C)C)c3O)c(=O)c2=O)C(F)(F)F)o1 | 9 nM | 19.8 µM·h | 5 nM
Cc1coc([C@H](Nc2c(Nc3cccc(C(=O)N(C)C)c3O)c(=O)c2=O)[C@H](C)F)c1 | 5 nM | 3.6 µM·h | 4 nM
CN(C)C(=O)c1cccc(Nc2c(N[C@@H](c3ccc4c(c3)OCO4)C(F)(F)F)c(=O)c2=O)c1O | 8 nM | 9.17 µM·h | 5 nM
CCC(F)(F)[C@@H](Nc1c(Nc2cccc(C(=O)N(C)C)c2O)c(=O)c1=O)c1ccc(C)o1 | 22 nM | – | 5 nM
Cc1ccc([C@H](Nc2c(Nc3cccc(C(=O)N(C)C)c3O)c(=O)c2=O)C(F)(F)C(F)(F)F)o1 | 10 nM | – | 4 nM
CC(C)c1coc([C@H](Nc2c(Nc3cccc(C(=O)N(C)C)c3O)c(=O)c2=O)C(C)(F)F)c1 | 25 nM | – | 2 nM
CN(C)C(=O)c1cccc(Nc2c(N[C@@H](c3cc(Cl)c(Cl)o3)C(F)(F)F)c(=O)c2=O)c1O | 103 nM | – | 5 nM
Cc1coc([C@H](Nc2c(Nc3cccc(C(=O)N(C)C)c3O)c(=O)c2=O)C(C)(F)F)c1 | 6 nM | – | 14 nM
CC[C@@H](Nc1c(Nc2cccc(C(=O)N(C)C)c2O)c(=O)c1=O)c1ccc(C)o1 [NAVARIXIN ANHYDROUS] | – | 49 µM·h | –
